{
  "source": "paper PMC6240891",
  "about": "“Functional Analysis of Four Terpene Synthases in Rose-Scented Pelargonium Cultivars (Pelargonium × hybridum) and Evolution of Scent in the Pelargonium Genus” (Frontiers in Plant Science, 2018)",
  "experiment_in_all_cases": "GC-MS product analysis",
  "type_in_all_cases": "biochemical",
  "conditions_in_all_cases": "10 mM MgCl2, 1 mM MnCl2, pH 7.5, 30°C, 2 h",
  "key": {"PhMYRS": {"target": "T1, PhMYRS (Pelargonium graveolens, UniProt A0A2S1JKZ8)", "T1 construct": "gene MYRS; full-length (predicted plastid-targeted); E. coli Rosetta (DE3) pLysS", "T1 sequence (A0A2S1JKZ8 1-606)": "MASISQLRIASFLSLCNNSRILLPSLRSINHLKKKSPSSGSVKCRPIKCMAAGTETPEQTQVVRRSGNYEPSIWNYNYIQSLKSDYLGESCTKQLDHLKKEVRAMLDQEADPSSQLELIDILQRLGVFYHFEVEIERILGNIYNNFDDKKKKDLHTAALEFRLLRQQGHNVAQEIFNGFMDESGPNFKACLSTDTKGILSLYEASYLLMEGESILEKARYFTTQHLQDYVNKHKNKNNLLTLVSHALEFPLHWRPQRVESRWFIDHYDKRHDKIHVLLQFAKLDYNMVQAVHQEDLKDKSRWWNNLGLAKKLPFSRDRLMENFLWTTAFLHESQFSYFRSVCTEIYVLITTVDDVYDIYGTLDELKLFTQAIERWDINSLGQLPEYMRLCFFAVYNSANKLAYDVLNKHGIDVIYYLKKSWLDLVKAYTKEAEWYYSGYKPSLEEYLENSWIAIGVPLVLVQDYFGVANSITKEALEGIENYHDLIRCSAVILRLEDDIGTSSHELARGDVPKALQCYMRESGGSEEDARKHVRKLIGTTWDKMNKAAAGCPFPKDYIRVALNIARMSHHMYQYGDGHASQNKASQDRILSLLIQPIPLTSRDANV"}, "PhGES": {"target": "T2, PhGES (Pelargonium graveolens, UniProt A0A2S1JKY6)", "T2 construct": "gene GES; full-length (plastid-targeted); E. coli Rosetta (DE3) pLysS; 'Grasse' form lacks the TAL triplet of 'Bourbon' and 'Egypt'", "T2 sequence (A0A2S1JKY6 1-555)": "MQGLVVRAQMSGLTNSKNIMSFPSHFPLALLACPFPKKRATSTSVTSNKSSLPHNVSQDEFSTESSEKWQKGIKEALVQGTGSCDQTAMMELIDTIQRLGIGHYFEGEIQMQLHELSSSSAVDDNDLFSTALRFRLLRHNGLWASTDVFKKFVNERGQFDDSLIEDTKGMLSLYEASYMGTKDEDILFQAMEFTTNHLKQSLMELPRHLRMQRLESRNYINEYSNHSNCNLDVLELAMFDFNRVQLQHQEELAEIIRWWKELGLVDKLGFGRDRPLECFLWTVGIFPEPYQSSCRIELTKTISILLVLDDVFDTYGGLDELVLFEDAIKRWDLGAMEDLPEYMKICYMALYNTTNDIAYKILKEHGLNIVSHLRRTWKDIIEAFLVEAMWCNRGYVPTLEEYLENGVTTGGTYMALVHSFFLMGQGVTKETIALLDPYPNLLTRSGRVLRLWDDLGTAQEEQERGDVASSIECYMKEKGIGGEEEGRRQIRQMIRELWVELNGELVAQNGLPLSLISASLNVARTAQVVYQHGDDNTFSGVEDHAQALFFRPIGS"}, "PhEDS": {"target": "T3, PhEDS (Pelargonium graveolens, UniProt A0A2S1JKY7)", "T3 construct": "gene EUS; full-length; E. coli Rosetta (DE3) pLysS", "T3 sequence (A0A2S1JKY7 1-567)": "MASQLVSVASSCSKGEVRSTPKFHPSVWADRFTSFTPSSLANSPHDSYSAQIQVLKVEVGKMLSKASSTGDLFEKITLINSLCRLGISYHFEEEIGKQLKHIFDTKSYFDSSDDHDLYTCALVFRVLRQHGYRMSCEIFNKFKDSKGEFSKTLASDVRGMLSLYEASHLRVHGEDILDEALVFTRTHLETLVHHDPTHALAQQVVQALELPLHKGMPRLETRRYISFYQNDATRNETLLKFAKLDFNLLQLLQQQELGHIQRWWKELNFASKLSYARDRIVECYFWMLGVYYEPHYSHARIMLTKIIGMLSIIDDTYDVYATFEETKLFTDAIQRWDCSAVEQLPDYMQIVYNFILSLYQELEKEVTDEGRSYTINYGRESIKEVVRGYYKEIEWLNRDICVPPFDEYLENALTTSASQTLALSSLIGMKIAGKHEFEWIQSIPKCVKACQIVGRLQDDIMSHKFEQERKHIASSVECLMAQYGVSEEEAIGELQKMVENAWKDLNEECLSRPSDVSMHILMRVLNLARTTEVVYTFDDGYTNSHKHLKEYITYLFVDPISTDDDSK"}},
  "data": [
    {"smiles": "C=CC(=C)CCC=C(C)C", "note": "[β-myrcene]", "values": [
      {"measurement": "GC-MS product analysis", "setting": "PhMYRS; major product from GPP", "result": "PhMYRS (MF503884) used GPP to produce β-myrcene as major compound"}
    ]},
    {"smiles": "CC(C)=CCC/C(C)=C/COP(=O)(O)OP(=O)(O)O", "note": "[GPP]", "values": [
      {"measurement": "GC-MS product analysis", "setting": "PhMYRS; 50 µM", "result": "PhMYRS (MF503884) used GPP to produce β-myrcene as major compound"},
      {"measurement": "GC-MS product analysis", "setting": "PhGES; 50 µM", "result": "PhGES (MF503883) produced uniquely geraniol in presence of GPP as a substrate"}
    ]},
    {"smiles": "CC1=C2CC(C(C)(C)O)CCC2(C)CCC1", "note": "(stereo not drawn) [10-epi-γ-eudesmol]", "values": [
      {"measurement": "GC-MS product analysis", "setting": "PhEDS; major product from FPP", "result": "PhEDS (MF503882) produced 10-epi-γ-eudesmol and α-eudesmol as major and minor products"}
    ]},
    {"smiles": "CC(C)=CCC/C(C)=C/CC/C(C)=C/COP(=O)(O)OP(=O)(O)O", "note": "[FPP]", "values": [
      {"measurement": "GC-MS product analysis", "setting": "PhEDS; 50 µM", "result": "PhEDS (MF503882) produced 10-epi-γ-eudesmol and α-eudesmol as major and minor products, respectively, after incubation with FPP"}
    ]},
    {"smiles": "CC(C)=CCC/C(C)=C/CO", "note": "[geraniol]", "values": [
      {"measurement": "GC-MS product analysis", "setting": "PhGES; sole product from GPP", "result": "PhGES (MF503883) produced uniquely geraniol in presence of GPP as a substrate"}
    ]}
  ]
}
